Source: patent publication US8859541B2, “6-alkynylpyridines” (Boehringer Ingelheim International GmbH, priority 2012, dated 2014)

What was measured:
cIAP1 BIR3 = biological target: T1, cIAP1 BIR3 (Homo sapiens, UniProt Q13490); experiment: cIAP1 BIR3 binding assay (DELFIA), displacement of SMAC peptide; details: GST-fusion BIR3 domain (aa 256 to 363) 10 nM, SMAC peptide 10 nM; activity of the (S)-isomers
T1 construct: covering amino acids 256 to 363; cIAP1 BIR3; made in house; host or cells: E. coli
T1 sequence (Q13490 256-363): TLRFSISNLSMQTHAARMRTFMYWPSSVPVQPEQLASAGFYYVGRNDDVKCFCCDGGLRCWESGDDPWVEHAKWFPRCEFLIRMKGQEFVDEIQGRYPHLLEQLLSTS
Description: Biological Methods XIAP BIR3 and cIAP1 BIR3 Binding Assays (DELFIA)
Peptide […]-Lys(Biotin), representing the N-terminus of mature human SMAC (SMAC peptide), was used as interaction partner in the protein-peptide interaction assay.
BIR3 domains (10 nM) were incubated with SMAC peptide (10 nM) in Assay Buffer (50 mM Tris, 120 mM NaCl, 0.1% BSA, 1 mM DTT, 0.05% TritonX100) for one hour at room temperature in the presence of inhibitiory compounds. The assay mixture was transferred to a strepatvidin coated plate and incubated for one hour at room temperature to allow binding of the biotinylated peptide and associated BIR3 domains to the plate. After several washing steps Eu labeled anti-GST antibody (e.g. Perkin Elmer DELFIA Eu-N1-antiGST AD0250) was added to detect BIR3 domain-SMAC peptide interactions according to Perkin Elmer's instructions. […] Time resolved Europium fluoresecence was measured in a Wallac Victor using Standard assay settings.
DELFIA assay results were plotted against compound concentrations and Software GraphPad Prizm was used to calculate half maximal inhibitory concentrations (IC50 values).

XIAP BIR3 = biological target: T2, XIAP BIR3 (Homo sapiens, UniProt P98170); experiment: XIAP BIR3 binding assay (DELFIA), displacement of SMAC peptide; details: GST-fusion BIR3 domain (aa 241 to 356) 10 nM, SMAC peptide 10 nM; activity of the (S)-isomers
T2 construct: covering amino acids 241 to 356; XIAP BIR3; made in house; host or cells: E. coli
T2 sequence (P98170 241-356): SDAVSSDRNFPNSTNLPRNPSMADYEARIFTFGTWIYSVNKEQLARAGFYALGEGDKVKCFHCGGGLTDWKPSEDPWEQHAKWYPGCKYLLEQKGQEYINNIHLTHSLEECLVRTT
In short: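 Each BIR3 domain (10 nM) incubated with biotinylated N-terminal SMAC peptide (10 nM) and compound for 1 h at room temp in Tris/NaCl buffer with BSA, DTT and Triton X-100. Captured on streptavidin plates; bound BIR3 detected by Eu-labelled anti-GST time-resolved fluorescence, giving IC50 values.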

Row | IC50 (cIAP1 BIR3) | IC50 (XIAP BIR3) | Structure (SMILES)
1 | 4 nM | 269 nM | CNC(C)C(=O)Nc1ccc(-c2c(C)ncn2C)c(C#Cc2ccccc2)n1 (stereo not drawn) [Example 195, N-[5-(3,5-dimethylimidazol-4-yl)-6-(2-phenylethynyl)pyridin-2-yl]-2-(methylamino)propanamide]
2 | 1 nM | 66 nM | CNC(C)C(=O)Nc1ccc(-c2c(C)nc3ccccn23)c(C#Cc2cc3ccccc3o2)n1 (stereo not drawn) [Example 70, N-[6-[2-(1-benzofuran-2-yl)-ethynyl]-5-(2-methyl-imidazo[1,2-a]pyridin-3-yl)-pyridin-2-yl]-2-(methylamino)-propanamide]
3 | 5 nM | 224 nM | CNC(C)C(=O)Nc1ccc(-c2c(C)nc3ccccn23)c(C#Cc2nn(C)c3ncccc23)n1 (stereo not drawn) [Example 58, 2-(methylamino)-N-[5-(2-methylimidazo[1,2-a]pyridin-3-yl)-6-[2-(1-methylpyrazolo[3,4-b]pyridin-3-yl)ethynyl]pyridin-2-yl]propanamide]
4 | 1 nM | 112 nM | CNC(C)C(=O)Nc1ccc(-c2c(C)nc3ccccn23)c(C#Cc2ccc(-c3cccnc3)cc2)n1 (stereo not drawn) [Example 36, 2-(methylamino)-N-[5-(2-methylimidazo[1,2-a]pyridin-3-yl)-6-[2-(4-pyridin-3-ylphenyl)-ethynyl]pyridin-2-yl]propan-amide]
5 | 1 nM | 180 nM | CNC(C)C(=O)Nc1ccc(-c2c(C)nc3cc(F)ccn23)c(C#Cc2ccc3ncccc3c2)n1 (stereo not drawn) [Example 47, N-[5-(7-fluoro-2-methyl-imidazo[1,2-a]pyridin-3-yl)-6-(2-quinolin-6-ylethynyl)pyridin-2-yl]-2-(methylamino)propan-amide]
6 | 1 nM | 863 nM | CNC(C)C(=O)Nc1ccc(-c2c(C)nc(N3CCOCC3)nc2C)c(C#Cc2ccc3ncccc3c2)n1 (stereo not drawn) [Example 54, N-[5-(4,6-dimethyl-2-morpholin-4-ylpyrimidin-5-yl)-6-(2-quinolin-6-ylethynyl)-pyridin-2-yl]-2-(methylamino)-propanamide]
7 | 672 nM | 1250 nM | Cc1ccccc1C#Cc1cccc(NC(=O)C(C)N)n1 (stereo not drawn) [Example 232, 2-amino-N-[6-[2-(2-methylphenyl)ethynyl]pyridin-2-yl]propanamide]
8 | 1 nM | 300 nM | CNC(C)C(=O)Nc1ccc(-c2c(C)nc3ccccn23)c(C#Cc2ccc3c(c2)oc(=O)n3C)n1 (stereo not drawn) [Example 71, 2-(methylamino)-N-[5-(2-methylimidazo[1,2-a]pyridin-3-yl)-6-[2-(3-methyl-2-oxo-1,3-benzoxazol-6-yl)ethynyl]-pyridin-2-yl]propanamide]
9 | 25 nM | 121 nM | CNC(C)C(=O)Nc1ccc(-c2cncc(C#N)c2)c(C#Cc2ccccc2)n1 (stereo not drawn) [Example 123, N-[5-(5-cyanopyridin-3-yl)-6-(2-phenylethynyl)pyridin-2-yl]-2-(methylamino)propanamide]
10 | 22 nM | 76 nM | CNC(C)C(=O)Nc1ccc(-c2cnc(-n3ccnc3)nc2)c(C#Cc2ccccc2)n1 (stereo not drawn) [Example 192, N-[5-(2-imidazol-1-ylpyrimidin-5-yl)-6-(2-phenylethynyl)pyridin-2-yl]-2-(methylamino)propan-amide]
11 | 1 nM | 2400 nM | CNC(C)C(=O)Nc1ccc(-c2c(C)nc(N3CCCC3)nc2C)c(C#Cc2ccc3c(ccc(=O)n3C)c2)n1 (stereo not drawn) [Example 79, N-[5-(4,6-dimethyl-2-pyrrolidin-1-ylpyrimidin-5-yl)-6-[2-(1-methyl-2-oxoquinolin-6-yl)-ethynyl]pyridin-2-yl]-2-(methyl-amino)propanamide]
12 | 1 nM | 196 nM | CNC(C)C(=O)Nc1ccc(-c2c(C)nc3ccccn23)c(C#Cc2ccc3c(OC)nccc3c2)n1 (stereo not drawn) [Example 77, N-[6-[2-(1-methoxyisoquinolin-6-yl)ethynyl]-5-(2-methyl-imidazo[1,2-a]pyridin-3-yl)-pyridin-2-yl]-2-(methylamino)-propanamide]
13 | 1 nM | 579 nM | CNC(C)C(=O)Nc1ccc(-c2c(C)nc3ccccn23)c(C#Cc2ccc3c(ccc(=O)n3C)c2)n1 (stereo not drawn) [Example 26, 2-(methylamino)-N-[5-(2-methylimidazo[1,2-a]pyridin-3-yl)-6-[2-(1-methyl-2-oxoquinolin-6-yl)ethynyl]pyridin-2-yl]propanamide]
14 | 251 nM | 760 nM | CC(N)C(=O)Nc1cc2ccccc2c(C#Cc2ccsc2)n1 (stereo not drawn) [Example 203, 2-amino-N-[1-(2-thiophen-3-ylethynyl)isoquinolin-3-yl]propanamide]
15 | 1 nM | 16 nM | CNC(C)C(=O)Nc1ccc(-c2c(-c3ccncc3)nc3cc(C)ccn23)c(C#Cc2ccccc2)n1 (stereo not drawn) [Example 185, 2-(methylamino)-N-[5-(7-methyl-2-pyridin-4-ylimidazo[1,2-a]-pyridin-3-yl)-6-(2-phenyl-ethynyl)pyridin-2-yl]propanamide]
16 | 1230 nM | 2730 nM | CC(N)C(=O)Nc1cccc(C#Cc2ccc3cc[nH]c3c2)n1 (stereo not drawn) [Example 234, 2-amino-N-[6-[2-(1H-indol-6-yl)ethynyl]pyridin-2-yl]propanamide]
17 | 1 nM | 1670 nM | CNC(C)C(=O)Nc1ccc(-c2c(C)nc(N(C)C)nc2C)c(C#Cc2ccc3c(ccc(=O)n3C)c2)n1 (stereo not drawn) [Example 75, N-[5-[2-(dimethylamino)-4,6-dimethylpyrimidin-5-yl]-6-[2-(1-methyl-2-oxoquinolin-6-yl)-ethynyl]pyridin-2-yl]-2-(methyl-amino)propanamide]
18 | 1 nM | 277 nM | CNC(C)C(=O)Nc1ccc(-c2c(C)nc3ccccn23)c(C#Cc2ccc3c(c2)OCC(=O)N3C)n1 (stereo not drawn) [Example 33, 2-(methylamino)-N-[5-(2-methylimidazo[1,2-a]pyridin-3-yl)-6-[2-(4-methyl-3-oxo-1,4-benzoxazin-7-yl)ethynyl]-pyridin-2-yl]propanamide]
19 | 2 nM | 47 nM | CNC(C)C(=O)Nc1ccc(-c2c(-c3ccncc3)nc3cc(C)ccn23)c(C#Cc2ccc(F)c3ncccc23)n1 (stereo not drawn) [Example 78, N-[6-[2-(8-fluoroquinolin-5-yl)-ethynyl]-5-(7-methyl-2-pyridin-4-ylimidazo[1,2-a]pyridin-3-yl)-pyridin-2-yl]-2-(methylamino)-propanamide]
20 | 1 nM | 1450 nM | CNC(C)C(=O)Nc1ccc(-c2c(C)nc(N3CCOCC3)nc2C)c(C#Cc2ccc3c(c2)CC(=O)N3C)n1 (stereo not drawn) [Example 87, N-[5-(4,6-dimethyl-2-morpholin-4-ylpyrimidin-5-yl)-6-[2-(1-methyl-2-oxo-3H-indol-5-yl)ethynyl]pyridin-2-yl]-2-(methylamino)propanamide]
21 | 1 nM | 87 nM | CNC(C)C(=O)Nc1ccc(-c2c(-c3ccncc3)nc3cc(C)ccn23)c(C#Cc2ccc(Cl)c(Cl)c2)n1 (stereo not drawn) [Example 39, N-[6-[2-(3,4-dichlorophenyl)-ethynyl)-5-(7-methyl-2-pyridin-4-ylimidazo[1,2-a]pyridin-3-yl)-pyridin-2-yl]-2-(methylamino)-propanamide]
22 | 1 nM | 61 nM | CNC(C)C(=O)Nc1ccc(-c2c(-c3ccncc3)nc3cc(C)ccn23)c(C#Cc2ccc(-c3ccon3)cc2)n1 (stereo not drawn) [Example 82, 2-(methylamino)-N-[5-(7-methyl-2-pyridin-4-ylimidazo[1,2-a]pyridin-3-yl)-6-[2-[4-(1,2-oxazol-3-yl)phenyl]-ethynyl]pyridin-2-yl]propan-amide]
23 | 589 nM | 2420 nM | CC(N)C(=O)Nc1cc2ccccc2c(C#Cc2cc(F)cc(F)c2)n1 (stereo not drawn) [Example 229, 2-amino-N-[1-[2-(3,5-difluorophenyl)ethynyl]-isoquinolin-3-yl]propanamide]
24 | 16 nM | 103 nM | CNC(C)C(=O)Nc1ccc(-c2ccc3c(c2)C(=O)NC3=O)c(C#Cc2ccccc2)n1 (stereo not drawn) [Example 175, N-[5-(1,3-dioxoisoindol-5-yl)-6-(2-phenylethynyl)pyridin-2-yl]-2-(methylamino)propanamide]
25 | 1 nM | 166 nM | CNC(C)C(=O)Nc1ccc(-c2c(C)nc3ccccn23)c(C#Cc2ccc(-n3cccn3)cc2)n1 (stereo not drawn) [Example 90, 2-(methylamino)-N-[5-(2-methylimidazo[1,2-a]pyridin-3-yl)-6-[2-(4-pyrazol-1-ylphenyl)-ethynyl]pyridin-2-yl]propan-amide]
26 | 2120 nM | 9950 nM | CC(N)C(=O)Nc1cccc(C#Cc2cccc(C(=O)N3CCOCC3)c2)n1 (stereo not drawn) [Example 213, 2-amino-N-[6-[2-[3-(morpholine-4-carbonyl)-phenyl]ethynyl]pyridin-2-yl]propanamide]
27 | 1 nM | 1310 nM | CNC(C)C(=O)Nc1ccc(-c2c(C)nc(N3CCCC3)nc2C)c(C#Cc2ccc3ncccc3c2)n1 (stereo not drawn) [Example 80, N-[5-(4,6-dimethyl-2-pyrrolidin-1-ylpyrimidin-5-yl)-6-(2-quinolin-6-ylethynyl)pyridin-2-yl]-2-(methylamino)propan-amide]
